Reference: patent publication US10343977B2, “Tetrahydro-isohumulone derivatives, methods of making and using” (KINDEX PHARMACEUTICALS, INC., priority 2012, dated 2019)
Like-named read-outs stand apart in the source and are kept apart here.

Legend:
Type in all cases: cell-based
[1] = system: LPS-mediated inflammatory mediators in RAW264.7 and THP-1 cells; experiment: Mean inhibition across all six inflammatory mediators; conditions: for inhibition at 12.5 µM: 12.5 μM test compound
Experimental: (§1) The effect of the THIAA derivatives on LPS-mediated prostaglandin E2 (PGE2) and nitric oxide (NO) production was evaluated in a RAW264.7 murine macrophage model. The RAW 264.7 cell line was purchased from ATCC (Manassas, Va.) and maintained according to their instructions. Cells were grown and subcultured in 96-well plates at a density of 8×10^4 cells per well, and reached 80-90% confluence the next day. THIAA derivatives were added to the cells in serum-free medium at a final concentration of 0.1% DMSO. Following one hour of incubation with the THIAA derivatives, LPS (1 μg/ml) or DMEM medium alone was added to the cells and incubation was continued for 6 hours. Stimulation of RAW 264.7 cells with LPS (1 μg/ml) for 6 hours activated the production of PGE2 and NO. Supernatant media was collected for measurement of PGE2 levels. For NO, incubations were continued overnight. Supernatant media was collected for measurement of NO levels after 16 hours of stimulation. PGE2 levels were measured using assay kits from Assay Designs, (Ann Arbor, Mich.) and NO levels were measured using assay kits from Cayman Chemicals (Ann Harbor, Mich.).
(§2) The effect of the THIAA derivatives on LPS-mediated MMP-9, IL-1β, ([…], MCP-1, RANTES, and MIP-1α was evaluated in THP-1 cells. Stimulation of THP-1 cells with LPS (1 μg/ml) activated the production of MMP-9, IL-1β, MCP-1, RANTES, and MIP-1α.
(§3) Results are summarized in Table 2, with data represented as % inhibition of inflammatory mediator production.
Mean inhibition across all six inflammatory mediators was calculated for each of the THIAA derivatives.

[2] = molecular target: T1, PPARα (Homo sapiens, UniProt Q07869); experiment: PPARα reporter assay (INDIGO Biosciences); conditions: for Emax at 12.5 µM: read-out: PPARα % GW590735 (20.6 nM)
T1 sequence (Q07869 1-468): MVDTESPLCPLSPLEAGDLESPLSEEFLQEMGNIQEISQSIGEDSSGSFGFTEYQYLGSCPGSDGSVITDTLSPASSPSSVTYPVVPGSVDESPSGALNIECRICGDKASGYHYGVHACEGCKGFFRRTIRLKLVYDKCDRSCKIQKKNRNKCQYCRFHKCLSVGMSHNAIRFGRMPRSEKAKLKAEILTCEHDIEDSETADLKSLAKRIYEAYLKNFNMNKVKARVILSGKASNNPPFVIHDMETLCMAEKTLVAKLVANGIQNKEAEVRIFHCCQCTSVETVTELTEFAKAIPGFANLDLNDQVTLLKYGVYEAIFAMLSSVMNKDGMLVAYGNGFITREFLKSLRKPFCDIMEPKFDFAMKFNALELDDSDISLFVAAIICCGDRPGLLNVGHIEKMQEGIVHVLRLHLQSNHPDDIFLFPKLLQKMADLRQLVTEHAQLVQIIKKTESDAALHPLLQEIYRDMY
Experimental: (§4) The functional effect of THIAA derivatives on PPARα and PPARγ activity was evaluated using a PPAR reporter assay (INDIGO Biosciences, Pa.). This assay utilizes non-human mammalian cells engineered to provide constitutive high level expression of PPARα, or PPARγ and containing a luciferase report gene specific to the appropriate PPAR. Following activation by agonist binding, PPAR induces expression of the luciferase reporter gene. Luciferase activity therefore provides a surrogate for measuring PPAR activity in agonist-treated cells.
(§5) 0.1% DMSO was used as a solvent control for each assay. Plates were incubated for 20 hours in a humidified incubator at 37° C. and 5% CO2. After incubation, the cell medium was discarded and the cells were treated with 100 μL of luciferase detection reagent for 15 minutes. Plates were analyzed using a luminometer (Victor2, Perkin Elmer). Average relative light unit (RLU) and standard deviation were measured.

[3] = system: LPS-mediated nitric oxide (NO) production in RAW264.7 cells; experiment: LPS-mediated NO production in RAW264.7 murine macrophage model; conditions: Mus musculus, LPS 1 μg/ml; for inhibition at 12.5 µM: 12.5 μM test compound, NI = no inhibition
Experimental: (§6) THIAA derivatives synthesized in Examples 1-19 were dissolved in dimethyl sufoxide (DMSO) and stored at −20° C. LPS was purchased from Sigma Chemicals (St. Louis, Miss.).
as §1, §3

[4] = system: LPS-mediated MIP-1α production in THP-1 cells; experiment: LPS-mediated MIP-1α production in THP-1 cells; conditions: Homo sapiens; for inhibition at 12.5 µM: 12.5 μM test compound, THP-1 cells, LPS 1 μg/ml, NI = no inhibition
Experimental: as §6, §2, §3

[5] = system: LPS-mediated prostaglandin E2 (PGE2) production in RAW264.7 cells; experiment: LPS-mediated PGE2 production in RAW264.7 murine macrophage model; conditions: LPS 1 μg/ml, NI = no inhibition
Experimental: as §6, §1, §3

[6] = system: LPS-mediated MCP-1 production in THP-1 cells; experiment: LPS-mediated MCP-1 production in THP-1 cells; conditions: Homo sapiens; for inhibition at 12.5 µM: 12.5 μM test compound, THP-1 cells, LPS 1 μg/ml, NI = no inhibition
Experimental: as §6, §2, §3

[7] = molecular target: T2, PPARγ (Homo sapiens, UniProt P37231); experiment: PPARγ reporter assay (INDIGO Biosciences); conditions: 20 h
T2 sequence (P37231 1-505): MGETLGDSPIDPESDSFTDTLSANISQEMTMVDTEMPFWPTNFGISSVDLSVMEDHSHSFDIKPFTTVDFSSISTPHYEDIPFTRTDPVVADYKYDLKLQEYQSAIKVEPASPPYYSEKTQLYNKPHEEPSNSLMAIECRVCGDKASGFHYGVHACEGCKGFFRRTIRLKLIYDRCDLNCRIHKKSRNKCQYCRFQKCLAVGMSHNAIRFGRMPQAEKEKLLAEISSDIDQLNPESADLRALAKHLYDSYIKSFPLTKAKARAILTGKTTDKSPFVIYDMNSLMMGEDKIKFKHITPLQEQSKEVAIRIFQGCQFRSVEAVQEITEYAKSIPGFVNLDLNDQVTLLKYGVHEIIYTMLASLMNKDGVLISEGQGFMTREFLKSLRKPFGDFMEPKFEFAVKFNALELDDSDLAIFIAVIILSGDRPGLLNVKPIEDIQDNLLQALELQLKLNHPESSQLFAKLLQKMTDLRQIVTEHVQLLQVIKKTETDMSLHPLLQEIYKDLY
Experimental: as §4, §5

[8] = system: LPS-mediated IL-6 production in THP-1 cells; experiment: LPS-mediated IL-6 production in THP-1 cells; conditions: Homo sapiens; for inhibition at 12.5 µM: 12.5 μM test compound, THP-1 cells, LPS 1 μg/ml, NI = no inhibition
Experimental: as §6, §2, §3

[9] = system: LPS-mediated RANTES production in THP-1 cells; experiment: LPS-mediated RANTES production in THP-1 cells; conditions: Homo sapiens; for inhibition at 12.5 µM: 12.5 μM test compound, THP-1 cells, LPS 1 μg/ml, NI = no inhibition
Experimental: as §6, §2, §3

[10] = 12.5 μM test compound, luciferase reporter cells, 20 hours, activity compared to GW590735
[11] = Mus musculus, RAW264.7, 6 h, 12.5 μM test compound
[12] = read-out: PPARγ % rosiglitazone (500 nM), 12.5 μM test compound, luciferase reporter cells, 20 hours, activity compared to rosiglitazone

Emax at 12.5 µM [2, 10] [%]	Emax at 12.5 µM [7, 12] [%]	PPARα % GW590735 (20.6 nM) [2, 10]	SMILES	inhibition at 12.5 µM [1] [%]	inhibition at 12.5 µM [4] [%]	inhibition at 12.5 µM [6] [%]	inhibition at 12.5 µM [8] [%]	inhibition at 12.5 µM [9] [%]	inhibition at 12.5 µM ([3]; RAW264.7, 16 h) [%]	inhibition at 12.5 µM [5, 11] [%]	also measured
			CC(C)CCC(=O)[C@@]1(O)C([O-])=C(C(=O)CC(C)C)C(=O)[C@@H]1CCC(C)C.[K+] (stereo in doubt) [KDT501, Potassium salt of (+)-KDT500]	48	62	77	49	77			Emax at 12.5 µM ([2]; 20 h): < 5%; inhibition at 12.5 µM ([3]; 16 hours): 23%; % inhibition of PGE2 production ([5]; 12.5 μM test compound, 6 hours): No inhibition (NI); Emax at 12.5 µM ([7]; read-out: PPARγ % rosiglitazone (500 nM)): 31%
			Cc1nc(-c2ccc(C(F)(F)F)cc2)sc1C(=O)NCc1ccc(OC(C)(C)C(=O)O)cc1 [GW590735, reference compound]								PPARα activity (positive control) ([2]; GW590735 21-5000 nM, luciferase reporter cells, 20 hours): increased the activity
< 5	< 5		CO/N=C(/CC(C)C)C1=C(O)[C@](O)(/C(CCC(C)C)=N/OC)[C@@H](CCC(C)C)C1=O [KDT0001/2, (4R,5R)-3,4-dihydroxy-2-(N-methoxy-3-methylbutanimidoyl)-4-(N-methoxy-4-methylpentanimidoyl)-5-(3-methylbutyl)cyclopent-2-en-1-one]	39	< 20	74	60	45	< 0	55	
< 5	< 5		CO/N=C(/CC(C)C)C1=C(O)[C@](O)(C(O)CCC(C)C)[C@@H](CCC(C)C)C1=O (stereo partly drawn) [KDT0005, (4R,5R)-3,4-dihydroxy-4-(1-hydroxy-4-methylpentyl)-2-(N-methoxy-3-methylbutanimidoyl)-5-(3-methylbutyl)cyclopent-2-en-1-one]	< 20	20	38	< 20	25	< 0	< 0	
< 5	< 5		CC(C)CCC(=O)[C@@]1(O)C(=O)/C(=C(\CC(C)C)NCCO)C(=O)[C@@H]1CCC(C)C [KDT0017, (4R,5R)-4-hydroxy-2-{1[(2-hydroxyethyl)amino]-3-methylbutylidene}-5-(3-methylbutyl)-4-(4-methylpentanoyl)cyclopentane-1,3-dione]	23	< 0	80	50	< 0	< 20	< 0	
< 5	< 5		CN/C(CC(C)C)=C1\C(=O)[C@H](CCC(C)C)[C@@](O)(C(=O)CCC(C)C)C1=O [KDT0020, (4R,5R)-4-hydroxy-5-(3-methylbutyl)-2-[3-methyl-1-(methylamino)butylidene]-4-(4-methylpentanoyl)cyclopentane-1,3-dione]	46	< 20	82	70	35	< 20	75	
< 5	≥ 5	no effect	CC(C)CCC(=O)[C@@]1(OC(=O)C(C)(C)C)C(O)=C(C(=O)CC(C)C)C(=O)[C@@H]1CCC(C)C [KDT0033, (1S,5R)-2-hydroxy-3-(3-methylbutanoyl)-5-(3-methylbutyl)-1-(4-methylpentanoyl)-4-oxocyclopent-2-en-1-yl 2,2-dimethylpropanoate]	~90	95	100	87	97	> 50		
9	5	dual PPARα and PPARγ agonists	CC(C)CCC(=O)[C@@]1(OC(=O)CC(C)(C)C)C(O)=C(C(=O)CC(C)C)C(=O)[C@@H]1CCC(C)C [KDT0034, (1S,5R)-2-hydroxy-3-(3-methylbutanoyl)-5-(3-methylbutyl)-1-(4-methylpentanoyl)-4-oxocyclopent-2-en-1-yl 3,3-dimethylbutanoate]	~90	94	100	84	98	> 50		
< 5		no effect	CC(C)CCC(=O)[C@@]1(OC(=O)OCC(C)C)C(O)=C(C(=O)C(C)C)C(=O)[C@@H]1CCC(C)C [KDT0037, (1S,5R)-2-hydroxy-5-(3-methylbutyl)-1-(4-methylpentanoyl)-3-(2-methylpropanoyl)-4-oxocyclopent-2-en-1-yl 2-methylpropyl carbonate]	72	22	98	61	83			
			CN(CCOc1ccc(CC2SC(=O)NC2=O)cc1)c1ccccn1 (stereo not drawn) [Rosiglitazone, reference compound]								inhibition at 10 µM ([1]; 10 μM (rosiglitazone)): < 20%; inhibition at 10 µM ([3]; RAW264.7, 16 h, 10 μM (rosiglitazone)): 6%; inhibition at 10 µM ([4]; THP-1): < 0%; inhibition at 10 µM ([5]; Mus musculus, RAW264.7, 6 h, 10 μM (rosiglitazone)): < 0%; inhibition at 10 µM ([6]; THP-1): < 0%; inhibition at 10 µM ([8]; THP-1): < 0%; inhibition at 10 µM ([9]; THP-1): 24%
